In this assay the target is T1, human mTOR (Homo sapiens, UniProt P42345).
T1 construct: purchased Invitrogen
The assay is described as follows: Inhibition of mTOR (LanthaScreen TR-FRET, GFP-4E-BP1 substrate). It is filed as biochemical. As to conditions: purified mTor, GFP-4E-BP1 and ATP, 30 min at room temperature; read-out: pIC50 for inhibition of human mTOR in the assay of Example A (converted). Here is the method:
Example A Inhibition of mTOR
Purified mTor are purchased from Invitrogen. mTor activity was determined using Invitrogen's LanthaScreen system. The inhibitory properties of compounds relative to mTor may be determined using a black 384-well-plate format in the following buffer 50 mM Hepes, 10 mM NaCl, 10 mM MgCl2, 0.2 mM EDTA, 0.01% Brij35, 2 mM DTT at pH7.3. The test compound is prepared in DMSO using 2 fold serial dilutions for 11 data points which are added to the buffer so that each dilution contains 3% DMSO.
An assay for mTor inhibition is as follows:
Combine in each well 2 μl of 1.2 μM GFP-4E-BP1 (Invitrogen) and 150 μM ATP (in buffer), 2 μl of diluted test compound (3% DMSO in buffer), and 2 μl of 6 nM mTor in buffer. The reaction mixture is then incubated at room temperature for 30 min, and quenched by adding 40 mM ETDA with 4 nM Tb-anti-p4E-BP1 [pThr46] antibody in TR-FRET dilution buffer (Invitrogen). The plate is kept at room temperature for 1 hour and then read using PheraStar (BMG labtech) LanthaScreen mode.
pIC50 values, the negative of the log of the IC50, are calculated by non-linear curve fitting of the compound concentrations and percent of inhibition to the standard pIC50 equation.
In general terms: In TR-FRET formats the signal depends on donor and acceptor labels being close together.
Consider `CCNC(=O)Nc1ccc(-c2nc(N3CC4CCC(C3)O4)c3c(n2)C(C)(C)OC3)cc1` [Example 9, 1-(4-(4-(8-oxa-3-azabicyclo[3.2.1]octan-3-yl)-7,7-dimethyl-5,7-dihydrofuro[3,4-d]pyrimidin-2-yl)phenyl)-3-ethylurea], for which the IC50 is < 31.6 nM.

On to `CC1(C)OCc2c(N3CCOCC3)nc(-c3ccc(NC(=O)NC4CC4)cc3)nc21` [Example 11, 1-cyclopropyl-3-(4-(7,7-dimethyl-4-morpholino-5,7-dihydrofuro[3,4-d]pyrimidin-2-yl)phenyl)urea], for which the IC50 was < 31.6 nM.

Regarding `CNC(=O)Nc1ccc(-c2nc(N3CCOCC3)c3c(n2)C(C)(C)OC3)cc1` [Example 8, 1-(4-(7,7-dimethyl-4-morpholino-5,7-dihydrofuro[3,4-d]pyrimidin-2-yl)phenyl)-3-methylurea], the IC50 was < 31.6 nM.

Take `CNC(=O)Nc1ccc(-c2nc(N3CCOCC3)c3c(n2)C(C)(C)CO3)cc1` [Example 2, 1-(4-(7,7-dimethyl-4-morpholino-6,7-dihydrofuro[3,2-d]pyrimidin-2-yl)phenyl)-3-methylurea]: the IC50 is < 31.6 nM.

On to `CNC(=O)Nc1ccc(-c2nc(N3CC4CCC(C3)O4)c3c(n2)C(C)(C)OC3)cc1` [Example 6, 1-(4-(4-(8-oxa-3-azabicyclo[3.2.1]octan-3-yl)-7,7-dimethyl-5,7-dihydrofuro[3,4-d]pyrimidin-2-yl)phenyl)-3-methylurea], for which the IC50 was < 31.6 nM.

With `CNC(=O)Nc1ccc(-c2nc(N3CC4CCC(C3)O4)c3c(n2)C2(CC2)OC3)cc1` [Example 13, 1-(4-(4′-(8-oxa-3-azabicyclo[3.2.1]octan-3-yl)-5′H-spiro[cyclopropane-1,7′-furo[3,4-d]pyrimidine]-2′-yl)phenyl)-3-methylurea], the IC50 was < 31.6 nM.

Take `CNC(=O)Nc1ccc(-c2nc(N3CCOCC3)c3c(n2)C2(CC2)OC3)cc1` [Example 16, 1-methyl-3-(4-(4′-morpholino-5′H-spiro[cyclopropane-1,7′-furo[3,4-d]pyrimidine]-2′-yl)phenyl)urea]: the IC50 is < 31.6 nM.

For the compound `CNC(=O)Nc1ccc(-c2nc(N3CC4CCC(C3)O4)c3c(n2)C(C)(O)OC3)cc1` (stereo not drawn) [Example 12, 1-(4-(4-(8-oxa-3-azabicyclo[3.2.1]octan-3-yl)-7-hydroxy-7-methyl-5,7-dihydrofuro[3,4-d]pyrimidin-2-yl)phenyl)-3-methylurea], the IC50 was 31.6 to 1000 nM.

Regarding `CCNC(=O)Nc1ccc(-c2nc(N3CCOCC3)c3c(n2)C2(CC2)OC3)cc1` [Example 14, 1-ethyl-3-(4-(4′-morpholino-5′H-spiro[cyclopropane-1,7′-furo[3,4-d]pyrimidine]-2′-yl)phenyl)urea], the IC50 was < 31.6 nM.

Take `CCNC(=O)Nc1ccc(-c2nc(N3CCOCC3)c3c(n2)C(C)(C)OC3)cc1` [Example 10]: the IC50 was < 31.6 nM.

Turning to `CNC(=O)Nc1ccc(-c2nc(N3CC4CCC(C3)O4)c3c(n2)C(C)(C)CO3)cc1` [Example 4, 1-(4-(4-(8-oxa-3-azabicyclo[3.2.1]octan-3-yl)-7,7-dimethyl-6,7-dihydrofuro[3,2-d]pyrimidin-2-yl)phenyl)-3-methylurea], the IC50 is < 31.6 nM.

Consider `O=C(Nc1ccc(-c2nc(N3CCOCC3)c3c(n2)C2(CC2)OC3)cc1)NC1CC1` [Example 15, 1-cyclopropyl-3-(4-(4′-morpholino-5′H-spiro[cyclopropane-1,7′-furo[3,4-d]pyrimidine]-2′-yl)phenyl)urea], for which the IC50 was < 31.6 nM.

Values taken from patent US20110021515A1, “DIHYROFUROPYRMINDINE COMPOUNDS” (TAKEDA PHARMACEUTICAL COMPANY LIMITED, priority 2009, published 2011).
